Experimental data: the NIST ThermoML archive (doi:10.1016/j.jct.2005.06.015)

Tests used:
[1] = xn = mol fraction of the nth substance listed; details: 101 kPa, Liquid
[2] = refractive index (Na D-line) (dimensionless); xn = mol fraction of the nth substance listed; details: 101 kPa, Liquid, Standard Abbe refractometry
[3] = 101 kPa, Liquid
[4] = refractive index (Na D-line) (dimensionless); details: 101.33 kPa, Liquid, Standard Abbe refractometry

ClC(Cl)C(Cl)Cl [1,1,2,2-tetrachloroethane] + CCCCCCO
Details	mass density, [1] [kg/m3]	refractive index, [2]
293.15 K, x1 = 0.1003	886.07	1.4247
293.15 K, x1 = 0.2011	955.51	1.43135
293.15 K, x1 = 0.3006	1025.9	1.438
293.15 K, x1 = 0.4004	1098.46	1.44486
293.15 K, x1 = 0.5	1173.27	1.45201
293.15 K, x1 = 0.6009	1251.57	1.45957
293.15 K, x1 = 0.7002	1331.64	1.46735
293.15 K, x1 = 0.8004	1415.64	1.47556
293.15 K, x1 = 0.9011	1503.8	1.48444
293.15 K, x1 = 1	1594.27	1.49387
303.15 K, x1 = 0.1003	877.89	1.42076
303.15 K, x1 = 0.2011	946.24	1.42723
303.15 K, x1 = 0.3006	1015.59	1.43378
303.15 K, x1 = 0.4004	1087.1	1.4405
303.15 K, x1 = 0.5	1160.79	1.4475
303.15 K, x1 = 0.6009	1237.85	1.45495
303.15 K, x1 = 0.7002	1316.58	1.46264
303.15 K, x1 = 0.8004	1399.12	1.47082
303.15 K, x1 = 0.9011	1485.78	1.4796
303.15 K, x1 = 1	1574.85	1.48887

ClC(Cl)C(Cl)Cl [1,1,2,2-tetrachloroethane] + CCCCCO
Details	mass density, [1] [kg/m3]	refractive index, [2]
293.15 K, x1 = 0.1015	892.95	1.41801
293.15 K, x1 = 0.2006	969.17	1.42587
293.15 K, x1 = 0.3019	1046.97	1.43392
293.15 K, x1 = 0.4001	1122.53	1.44184
293.15 K, x1 = 0.5005	1199.96	1.45
293.15 K, x1 = 0.5995	1276.74	1.45825
293.15 K, x1 = 0.7005	1355.55	1.46691
293.15 K, x1 = 0.8008	1434.56	1.4757
293.15 K, x1 = 0.9001	1513.69	1.48463
293.15 K, x1 = 1	1594.27	1.49387
303.15 K, x1 = 0.1015	884.5	1.41395
303.15 K, x1 = 0.2006	959.53	1.42166
303.15 K, x1 = 0.3019	1036.17	1.42959
303.15 K, x1 = 0.4001	1110.64	1.43735
303.15 K, x1 = 0.5005	1186.94	1.44547
303.15 K, x1 = 0.5995	1262.57	1.45363
303.15 K, x1 = 0.7005	1340.1	1.46218
303.15 K, x1 = 0.8008	1417.76	1.47093
303.15 K, x1 = 0.9001	1495.54	1.47979
303.15 K, x1 = 1	1574.85	1.48887

CCCCCCCCCCO [decan-1-ol]
Details	mass density, [3] [kg/m3]	refractive index, [4]
293.15 K	829.84	1.43694
303.15 K	822.83	1.43364

CCCCCCCCCCO [decan-1-ol] + ClC(Cl)C(Cl)Cl
x2 = 0
Details	mass density, [1] [kg/m3]	refractive index, [2]
293.15 K	829.84	1.43694
303.15 K	822.83	1.43364

CCCCCCCO [heptan-1-ol]
Details	mass density, [3] [kg/m3]	refractive index, [4]
293.15 K	822.14	1.42397
303.15 K	815.41	1.42047

CCCCCCCO [heptan-1-ol] + ClC(Cl)C(Cl)Cl
x2 = 0
Details	mass density, [1] [kg/m3]	refractive index, [2]
293.15 K	822.14	1.42397
303.15 K	815.41	1.42047

CCCCCCO [hexan-1-ol]
Details	mass density, [3] [kg/m3]	refractive index, [4]
293.15 K	818.72	1.41807
303.15 K	811.73	1.41423

CCCCCCO [hexan-1-ol] + ClC(Cl)C(Cl)Cl
x2 = 0
Details	mass density, [1] [kg/m3]	refractive index, [2]
293.15 K	818.72	1.41807
303.15 K	811.73	1.41423

CCCCCCCCO [octan-1-ol]
Details	mass density, [3] [kg/m3]	refractive index, [4]
293.15 K	825	1.42941
303.15 K	818.09	1.42563

CCCCCCCCO [octan-1-ol] + ClC(Cl)C(Cl)Cl
x2 = 0
Details	mass density, [1] [kg/m3]	refractive index, [2]
293.15 K	825	1.42941
303.15 K	818.09	1.42563

CCCCCO [pentan-1-ol]
Details	mass density, [3] [kg/m3]	refractive index, [4]
293.15 K	814.72	1.40976
303.15 K	807.6	1.40592

CCCCCO [pentan-1-ol] + ClC(Cl)C(Cl)Cl
x2 = 0
Details	mass density, [1] [kg/m3]	refractive index, [2]
293.15 K	814.72	1.40976
303.15 K	807.6	1.40592
